Experimental data published in ChEMBL document CHEMBL5244280, “Evodiamine Lowers Blood Lipids by Up-Regulating the PPARγ/ABCG1 Pathway in High-Fat-Diet-Fed Mice” (J Nat Prod, 2021).
Activity calls are given as the source filed them. The calls are words filed in the database; no cut-off is given here.

Assays:
Mus musculus [1] = assay: Effect on food intake in high fat diet-fed hyperlipidemic ICR mouse model at 10 mg/kg, ig administered daily via gavage for 8 weeks; format: functional, organism-based
Mus musculus [2] = assay: Protection against hyperlipidemia in high fat diet-fed hyperlipidemic ICR mouse model assessed as serum HDL-C content at 10 mg/kg, ig administered daily via gavage for 8 weeks by spectrophotometric analysis; format: functional, organism-based
[3] = Toxicity against normal diet-fed ICR mouse assessed as effect on plasma triglyceride content at 10 mg/kg, ig administered daily via gavage for 8 weeks by spectrophotometric analysis; format: organism-based; settings: in vivo, po, 1344 h
[4] = Toxicity against normal diet-fed ICR mouse assessed as effect on plasma total cholesterol content at 10 mg/kg, ig administered daily via gavage for 8 weeks by spectrophotometric analysis; format: organism-based; settings: in vivo, po, 1344 h
Mus musculus [5] = assay: Protection against hyperlipidemia in high fat diet-fed hyperlipidemic ICR mouse model assessed as reduction in serum triglyceride content at 20 mg/kg, ig administered daily via gavage for 8 weeks by spectrophotometric analysis; format: functional, organism-based
Mus musculus [6] = assay: Protection against hyperlipidemia in high fat diet-fed hyperlipidemic ICR mouse model assessed as reduction in serum total cholesterol content at 20 mg/kg, ig administered daily via gavage for 8 weeks by spectrophotometric analysis; format: functional, organism-based
Mus musculus [7] = assay: Protection against hyperlipidemia in high fat diet-fed hyperlipidemic ICR mouse model assessed as reduction in serum LDL-C content at 20 mg/kg, ig administered daily via gavage for 8 weeks by spectrophotometric analysis; format: functional, organism-based
Mus musculus [8] = assay: Protection against hyperlipidemia in high fat diet-fed hyperlipidemic ICR mouse model assessed as serum HDL-C content at 20 mg/kg, ig administered daily via gavage for 8 weeks by spectrophotometric analysis; format: functional, organism-based
Mus musculus [9] = assay: Protection against hyperlipidemia in high fat diet-fed hyperlipidemic ICR mouse model assessed as reduction in body weight at 10 mg/kg, ig administered daily via gavage for 8 weeks; format: functional; settings: po, 1344 h
[10] = Toxicity in normal diet fed ICR mouse assessed as effect on food intake at 10 mg/kg, ig administered daily via gavage for 8 weeks; format: organism-based; settings: in vivo, po, 1344 h
[11] = Toxicity in normal diet fed ICR mouse assessed as ratio of heart weight to body weight at 10 mg/kg, ig administered daily via gavage for 8 weeks (reference value: 0.46 +/-0.03); format: organism-based; settings: in vivo, po, 1344 h
[12] = Toxicity in normal diet fed ICR mouse assessed as ratio of lung weight to body weight at 10 mg/kg, ig administered daily via gavage for 8 weeks (reference value: 0.83 +/-0.32); format: organism-based; settings: in vivo, po, 1344 h
[13] = Toxicity in normal diet fed ICR mouse assessed as ratio of spleen weight to body weight at 10 mg/kg, ig administered daily via gavage for 8 weeks (reference value: 0.42 +/-0.08); format: organism-based; settings: in vivo, po, 1344 h
[14] = Toxicity in normal diet fed ICR mouse assessed as ratio of stomach weight to body weight at 10 mg/kg, ig administered daily via gavage for 8 weeks (reference value: 1.24 +/-0.41); format: organism-based; settings: in vivo, po, 1344 h
[15] = Toxicity in high fat diet fed hyperlipidemic ICR mouse model assessed as ratio of liver weight to body weight at 10 mg/kg, ig administered daily via gavage for 8 weeks (reference value: 4.23 +/-0.79); format: organism-based; settings: in vivo, po, 1344 h
[16] = Toxicity in high fat diet fed hyperlipidemic ICR mouse model assessed as ratio of heart weight to body weight at 10 mg/kg, ig administered daily via gavage for 8 weeks (reference value: 0.48 +/-0.03); format: organism-based; settings: in vivo, po, 1344 h
[17] = Toxicity in high fat diet fed hyperlipidemic ICR mouse model assessed as ratio of kidney weight to body weight at 10 mg/kg, ig administered daily via gavage for 8 weeks (reference value: 1.34 +/-0.09); format: organism-based; settings: in vivo, po, 1344 h
Mus musculus [18] = assay: Upregulation of SR-B1 protein expression in liver of normal diet fed ICR mouse at 10 mg/kg, ig administered daily via gavage for 8 weeks by western blotting analysis; format: functional, organism-based
Mus musculus [19] = assay: Upregulation of SR-B1 protein expression in liver of high fat diet fed hyperlipidemic ICR mouse model at 10 mg/kg, ig administered daily via gavage for 8 weeks by western blotting analysis; format: functional, organism-based
Mus musculus [20] = assay: Upregulation of ABCA1 protein expression in liver of high fat diet fed hyperlipidemic ICR mouse model at 10 mg/kg, ig administered daily via gavage for 8 weeks by western blotting analysis; format: functional, organism-based
Mus musculus [21] = assay: Upregulation of ABCG8 protein expression in liver of high fat diet fed hyperlipidemic ICR mouse model at 10 mg/kg, ig administered daily via gavage for 8 weeks by western blotting analysis; format: functional, organism-based
Mus musculus [22] = assay: Upregulation of NPC1L1 protein expression in liver of high fat diet fed hyperlipidemic ICR mouse model at 10 mg/kg, ig administered daily via gavage for 8 weeks by western blotting analysis; format: functional, organism-based
Mus musculus [23] = assay: Upregulation of ABCG1 mRNA expression in liver of high fat diet fed hyperlipidemic ICR mouse model at 10 mg/kg, ig administered daily via gavage for 8 weeks by qPCR analysis relative to control; format: functional
Mus musculus [24] = assay: Upregulation of SR-B1 mRNA expression in liver of high fat diet fed hyperlipidemic ICR mouse model at 10 mg/kg, ig administered daily via gavage for 8 weeks by qPCR analysis; format: functional, organism-based
Mus musculus [25] = assay: Upregulation of ABCG5 mRNA expression in liver of high fat diet fed hyperlipidemic ICR mouse model at 10 mg/kg, ig administered daily via gavage for 8 weeks by qPCR analysis; format: functional, organism-based
Mus musculus [26] = assay: Downregulation of ABCG8 mRNA expression in liver of high fat diet fed hyperlipidemic ICR mouse model at 10 mg/kg, ig administered daily via gavage for 8 weeks by qPCR analysis; format: functional, organism-based
Mus musculus [27] = assay: Upregulation of PPAR-gamma protein expression in liver of high fat diet fed hyperlipidemic ICR mouse model at 10 to 20 mg/kg, ig administered daily via gavage for 8 weeks by western blotting analysis; format: functional, organism-based; settings: dose 10-20 mg/kg
[28] = biological target: T1, Peroxisome proliferator-activated receptor gamma (Homo sapiens) (UniProt P37231); assay: Agonist activity at human PPAR-gamma expressed in HEK293 cells co-transfected with luciferase reporter plasmid assessed as receptor transactivation at 10 uM incubated for 18 hrs by luciferase reporter gene assay relative to control; format: cell-based
T1 sequence (whole entry): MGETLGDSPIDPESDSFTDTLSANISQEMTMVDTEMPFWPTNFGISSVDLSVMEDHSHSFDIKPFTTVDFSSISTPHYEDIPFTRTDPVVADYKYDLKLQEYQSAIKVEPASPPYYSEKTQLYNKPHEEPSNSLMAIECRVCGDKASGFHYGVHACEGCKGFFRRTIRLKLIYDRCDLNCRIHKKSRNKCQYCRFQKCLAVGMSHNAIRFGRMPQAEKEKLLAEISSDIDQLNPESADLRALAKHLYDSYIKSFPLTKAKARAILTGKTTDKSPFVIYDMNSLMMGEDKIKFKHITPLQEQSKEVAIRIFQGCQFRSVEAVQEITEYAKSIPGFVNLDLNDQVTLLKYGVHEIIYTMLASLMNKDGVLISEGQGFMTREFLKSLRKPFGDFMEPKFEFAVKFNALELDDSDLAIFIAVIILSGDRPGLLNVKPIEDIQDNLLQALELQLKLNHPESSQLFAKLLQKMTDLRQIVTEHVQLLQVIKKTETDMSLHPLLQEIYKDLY

HEK293 = assay: Agonist activity at human PPAR-beta expressed in HEK293 cells co-transfected with luciferase reporter plasmid assessed as receptor transactivation at 10 uM incubated for 18 hrs by luciferase reporter gene assay relative to control; format: cell-based

In the case of `CN1c2ccccc2C(=O)N2CCc3c([nH]c4ccccc34)C21` (centres undefined), the Activity (Mus musculus [1]) is reported as “inactive”, the Activity (Mus musculus [2]) is reported as “inactive” and the Activity [3] is reported as “Non-Toxic”. The Activity [4] was “Non-Toxic”, the Activity (Mus musculus [5]) was “Active” and the Activity (Mus musculus [6]) was “Active”. The Activity (Mus musculus [7]) was “Active”, the Activity (Mus musculus [8]) was “inactive” and the inhibition in vivo at 10 mg/kg (Mus musculus [9]) was 68.1%. For the same compound, the Activity [10] was “Non-Toxic”, the Ratio [11] was 0.49 and the Ratio [12] was 0.78. For the same compound, the Ratio [13] was 0.41, the Ratio [14] was 1.48 and the Ratio [15] was 3.85. For the same compound, the Ratio [16] was 0.48, the Ratio [17] was 1.29 and the Activity (Mus musculus [18]) was “Active”. The Activity (Mus musculus [19]) was “Active”, the Activity (Mus musculus [20]) was “inactive” and the Activity (Mus musculus [21]) was “inactive”. For the same compound, the Activity (Mus musculus [22]) was “inactive”, the “fold change (FC)” value (Mus musculus [23]) was 3.6 and the Activity (Mus musculus [24]) was “inactive”. For the same compound, the Activity (Mus musculus [25]) was “inactive”, the inhibition (Mus musculus [26]) was “Active” and the Activity (Mus musculus [27]) was “Active”. It also gave a fold change (FC) [28] of 0.49 and a fold change (FC) (HEK293) of 1.53.
